The test system of the assay is N-terminal 6 His-tagged, constitutively active MEK1 (2-393). Description: MEK1 kinase assay (incorporation of γ-33P-phosphate from γ-33P-ATP onto ERK2). Format: biochemical. The note with it: 5 nM MEK1, 1 μM ERK2, 10 μM ATP, 45 minutes at ambient temperature, 1% DMSO. As to the method:
The activity of the compounds of the present invention may be determined by the following procedure. N-terminal 6 His-tagged, constitutively active MEK1 (2-393) is expressed in E. coli and protein is purified by conventional methods (Ahn et al., Science 1994, 265, 966-970). The activity of MEK1 is assessed by measuring the incorporation of γ-^33P-phosphate from γ-^33P-ATP onto N-terminal His tagged ERK2, which is expressed in E. coli and is purified by conventional methods, in the presence of MEK1. The assay is carried out in 96-well polypropylene plate. The incubation mixture (100 μL) comprises of 25 mM Hepes, pH 7.4, 10 mM MgCl2, 5 mM β-glycerolphosphate, 100 μM Na-orthovanadate, 5 mM DTT, 5 nM MEK1, and 1 μM ERK2. Inhibitors are suspended in DMSO, and all reactions, including controls are performed at a final concentration of 1% DMSO. Reactions are initiated by the addition of 10 μM ATP (with 0.5 μCi γ-^33P-ATP/well) and incubated at ambient temperature for 45 minutes. Equal volume of 25% TCA is added to stop the reaction and precipitate the proteins. Precipitated proteins are trapped onto glass fiber B filterplates, and excess labeled ATP washed off using a Tomtec MACH III harvester. Plates are allowed to air-dry prior to adding 30 μL/well of Packard Microscint 20, and plates are counted using a Packard TopCount.

Regarding `Cn1cnc2c(F)c(Nc3ccc(Br)cc3F)c(C(=O)NOCCO)cc21` [Compound 29lll], the outcome was active.
For the compound `Cc1nc(Cn2cnc3c(F)c(Nc4ccc(Br)cc4Cl)c(C(=O)NOCCO)cc32)cs1` [Compound 29s], the outcome was active.
As to `O=C(NOCC1CC1)c1cc2[nH]cnc2c(F)c1Nc1ccc(Br)cc1Cl` [Compound 11b, 6-(4-Bromo-2-chloro-phenylamino)-7-fluoro-3H-benzoimidazole-5-carboxylic acid cyclopropylmethoxy-amide], the result was active.
For `O=C(NOCCO)c1cc2c(ncn2CC2CCCCO2)c(F)c1Nc1ccc(Br)cc1Cl` (stereo not drawn) [Compound 11p, 6-(4-Bromo-2-chloro-phenylamino)-7-fluoro-3-(tetrahydro-pyran-2-ylmethyl)-3H-benzoimidazole-5-carboxylic acid (2-hydroxy-ethoxy)-amide], the result was active.
As to `Cn1cnc2c(F)c(Nc3ccc(Br)cc3Cl)c(C(=O)NOCCO)cc21` [Compound 29c, 6-(4-Bromo-2-chloro-phenylamino)-7-fluoro-3-methyl-3H-benzoimidazole-5-carboxylic acid (2-hydroxy-ethoxy)-amide], the result was active.
As for `O=C(NOCCO)c1cc2c(ncn2Cc2ccc(Cl)cc2)c(F)c1Nc1ccc(Br)cc1Cl` [Compound 29t], the entry is “active”.
Regarding `Cc1cc(Br)ccc1Nc1c(C(=O)NOCC2CC2)cc2c(ncn2CCCCN2CCCCC2)c1F` [Compound 18i], the result was active.
As to `CCCCn1cnc2c(F)c(Nc3ccc(Br)cc3Cl)c(C(=O)NOCC3CC3)cc21` [Compound 29bb], the outcome was active.
Turning to `Cc1cc(Br)ccc1Nc1c(C(=O)NOCC2CC2)cc2c(ncn2C)c1F` [Compound 11c], the outcome was active.
As for `Cn1cnc2c(F)c(Nc3ccc(Br)cc3Cl)c(C(=O)NOC(C)(C)CO)cc21` [Compound 29i], the entry is “active”.
As for `Cn1cnc2c(F)c(Nc3ccc(Br)cc3F)c(C(=O)NOC(C)(C)CO)cc21` [Compound 29mmm], the result was active.
As to `O=C(NOCCO)c1cc2[nH]cnc2c(F)c1Nc1ccc(Br)cc1Cl` [Compound 8n], the result was active.

Source of the values: US7235537B2, “N3 alkylated benzimidazole derivatives as MEK inhibitors” (Array BioPharma, Inc., priority 2002, dated 2007).
